Point of comparison: CCOC(=O)C(F)Sc1ccc(O)cc1 (stereo not drawn), melting point 72 °C. Against it:
- COP(=O)(Cc1nc(C)c(C)o1)OC — lower, 54 to 57 °C
- CCOC(=O)c1c(C)cc(OC)cc1C(=O)O — higher, 142 to 143 °C
- COc1cc2ncc(C#N)c(Nc3cccc(Cl)c3)c2cc1OC — higher, 214 to 217 °C
- COC(=O)NC(=O)n1cc(C(=O)c2ccn3c2CSC3c2cccnc2)c2ccc(OCc3ccccc3)cc21 (stereo not drawn) — higher, 152 to 153 °C
- CCOC(=O)c1cn(-c2ccccc2)c2c([N+](=O)[O-])c(Cl)c(F)cc2c1=O — higher, 186 to 188 °C
- N#Cc1cnc2cnc(F)cc2c1Cl — higher, 150 to 155 °C
- CS(=O)(=O)c1ccc(-c2cc(CBr)nn2CC2CCCCC2)cc1 — higher, 141 to 143 °C
- CC(=O)Nc1nc(CCc2ccc(NC3=NCCS3)cc2)cs1 — higher, 218 to 220 °C
- O=C(O)c1ccccc1-c1ccc(CNc2nc(Cl)nc3ccc(Cl)cc23)cc1 — higher, 210 to 240 °C
- CC(C)(C)C(=Cc1ccc(Cl)cc1Cl)Cn1cncn1 — higher, 78 °C
- Oc1cccc2cc(-c3ccc(OCCN4CCCC4)cc3)sc12 — higher, 180 to 183 °C
- COc1ccc(C2CN(Cc3ccc4ccccc4n3)C(=O)N(Cc3ccc4ccccc4n3)C2)cc1OC1CC2CCC1C2 (stereo not drawn) — higher, 135 to 136 °C
- CN=C(O)c1cc(Cl)c(Sc2ccccc2C(=O)O)cc1C(=O)O — higher, 258 to 266 °C
- CC(C)n1nc(-c2ccc(O)cc2)c2cccc(C(F)(F)F)c21 — higher, 156 to 157 °C
- CCc1[nH]c(=O)[nH]c1C(=O)c1ccc(C#N)cc1 — higher, 269 to 271 °C
- O=C(O)CCCCCNC(=O)c1cccc2c(=O)c3ccccc3[nH]c12 — higher, 218 °C
- Cn1c2ccc(Cl)cc2c2cc(C(=O)O)sc21 — higher, 259 to 262 °C
- O=Cn1cc(Cl)c(-c2ccccc2C(F)(F)F)c1 — higher, 75 to 78 °C
- N#CCC(C#N)NNc1c(Cl)cc(C(F)(F)F)cc1Cl (stereo not drawn) — higher, 101 to 102 °C
- O=c1c2cc(F)c(N3CCCC3)cc2n(Cc2ccccc2)c(=O)n1O — higher, 234 to 236 °C
- CCS(=O)c1c(C#N)nn(-c2c(Cl)cc(C(F)(F)F)cc2Cl)c1NC (stereo not drawn) — higher, 142 °C
- Cc1ccc(-n2c3ccccc3c3ccccc32)cc1 — higher, 104 to 106 °C
- CCN(CC)CCn1nc2c3c(c(NC(=O)CN(CCOCc4ccccc4)Cc4ccccc4)ccc31)Oc1ccc(O)cc1-2 — higher, 165 to 168 °C
- ClCCCOc1ccc(OCCCCl)c(Cl)c1 — higher, 135 °C
- CC(=S)N[C@@H]1c2cc(C#N)ccc2OC(C)(C)[C@H]1O (relative stereo) — higher, 176 to 180 °C
- CC(C)c1onc2c1c(=O)n(C)c(=O)n2C — higher, 106 °C
- COc1ccc([C@@H]2Sc3ccccc3N(CCN(C)C)C(=O)[C@@H]2OC(=O)Nc2cccc(F)c2)cc1 (relative stereo) — higher, 111 to 113 °C
- COc1ccc(-c2cnc3[nH]c4ccccc4c3c2)cc1 — higher, > 220 °C
- CC(C)(O)c1cc(C(F)(F)F)cc(C(F)(F)F)c1 — lower, 59 to 60 °C
- Nc1ccc(NC(=O)Nn2cnc3ccccc3c2=O)cc1 — higher, > 305 °C
- CCc1nc(-c2cccc(C)c2)c(-c2ccnc(NC(=O)C3CCCCC3)c2)s1 — higher, 98 to 100 °C
- O=C(O)CNC(=O)Nc1ccc([N+](=O)[O-])cc1 — higher, 213 to 214 °C
- COc1ccc(Cl)cc1C(=O)N(CCCC(=O)O)c1ccc(OC)c(-c2ccccc2)c1 — higher, 155 to 156 °C
- CCCC(C)(CC)C(=O)O[C@H]1C[C@H](O)C=C2C=C[C@H](C)[C@H](CC[C@@H]3C[C@@H](O)CC(=O)O3)[C@H]21 (stereo partly drawn) — higher, 126 to 128 °C
- CCn1c(=O)nc(-c2ccccc2)c2cc(Cl)ccc21 — higher, 176 to 178 °C
- CC(=O)c1cc2c(s1)CCCC2NC(N)=O (stereo not drawn) — higher, 218 to 220 °C
- CC(C)(C)c1cc2c(cc1Br)C=C(C(=O)O)C(C(F)(F)F)O2 (stereo not drawn) — higher, 199 to 200 °C
- CC(Cc1ccc(F)cc1F)C(N)=O (stereo not drawn) — higher, 90 to 91 °C
- CCCC1=Cc2c3c(c(C)c(C)c2C1=O)OC(C(=O)O)C3 (stereo not drawn) — higher, 212 °C
- CCCCCCCCC1N(C)c2cccc3cccc(c23)N1C — lower, 62 to 63 °C
- Cc1nc2n(c1C)CCCC2=O — higher, 178 °C
- O=C(Cc1ccccc1)OC1c2ccccc2C(=O)N1c1ccc2ccc(Cl)nc2n1 (stereo not drawn) — higher, 222 to 224 °C
- O=C(Nc1ccc2nc(CN3CCCCC3)ccc2c1)c1ccc(-c2ccc(F)cc2F)nc1 — higher, 182 to 183 °C
- CCCC(=O)c1cnc2c(C)cccc2c1Nc1ccc(OC)cc1C — higher, 114 to 115 °C
- O=C1c2ccccc2-c2c1c1ccccc1c(=O)n2CCCO — higher, 173 to 175 °C
- COc1cc2c(c3c1OC(C)(C)C3)C(c1ccccc1)=NC(COC(C)=O)C2 (stereo not drawn) — higher, 168 to 169 °C
- Cc1cc(NC(=O)C(=O)N(C(C)C)C(C)C)cc(C)c1S(=O)(=O)C[N+](=O)[O-] — higher, 97 to 98 °C
- CCC(=O)Nc1cc(C(C)(C)C)on1 — higher, 95 to 96 °C
- O=C(NC1CN(C(C(=O)O)c2ccccc2)C1=O)C(=NO)c1ccccc1 (stereo not drawn) — higher, 145 to 149 °C
- CCN(CC)Cc1cc(C(=O)c2ccccc2)cc(C2CCCCC2)c1O — higher, 106 to 107 °C
- CC1CCC(C(C)C)C(C(=O)NC(C)(C)C)C1 (stereo not drawn) — higher, 145 to 146 °C
- CCNc1c(OC)cc(Cc2cnc(N)nc2N)cc1OC — higher, 186 to 188 °C
- CS(=O)(=O)c1ccc(COc2cccc(C(=O)Nc3ccc(C#N)cc3)c2)cc1 — higher, 209 to 210 °C
- COC(=O)Cn1nnc(NC(=O)C2c3ccccc3Oc3ccccc32)n1 — higher, 243 to 244 °C
- Cn1nc(-c2cc(F)c([N+](=O)[O-])cc2F)cc1C(F)(F)F — higher, 80 to 81 °C
- O=C(NCCCCN1CCC(c2c[nH]c3ccccc23)CC1)c1ccc(-c2ccc(C(F)(F)F)cc2)cc1CO — higher, 255 °C
- Cc1nc(N)nc(N)c1OCCCc1ccccc1 — higher, 160 to 162 °C
- CCCCCC[C@H]1C[C@@H](C)OC1=O (relative stereo) — lower, 28.5 °C
- Cn1nnnc1SCCCCSC1=Nc2ccccc2C(=O)NN1 — higher, 94 to 95 °C
- CCCCn1c(=O)c(C(=O)Nc2ccncc2)c(O)c2sccc21 — higher, 212 to 216 °C
- CONC(=O)c1ccc(CC(C)(C)C=O)cc1 — higher, 126 to 128 °C
- Cc1cc(N)ccc1N=Nc1ccc([N+](=O)[O-])cc1 — higher, 152 °C
- C#CCP(=O)(O)CCCN — higher, 172 to 173 °C
- FC(F)(F)Oc1ccc(-c2ccc3c(ccn3Cc3ccccc3)c2)cc1 — lower, 62 to 63 °C
- CCOC(=O)c1cc2cc(OC(F)(F)F)cc(N)c2[nH]1 — higher, 190 to 191 °C
- CN(C)c1cncc(I)n1 — lower, 46 to 48 °C
- CCOc1cc(-c2ccc(S(C)(=O)=O)cc2)c(-c2ccc(F)cc2)c(C(F)(F)F)n1 — higher, 168 to 170 °C
- O=C(O)COc1cccc2c1CCCC2CCOC(=O)N(c1ccccc1)c1ccccc1 (stereo not drawn) — higher, 145 °C
- CCON=C(CC)C1=C(O)CC(c2ccc(Sc3ccc(S(C)(=O)=O)cn3)cc2)CC1=O (stereo not drawn) — higher, 126 to 128 °C
- CC(C)NC(=O)c1coc2ccccc2c1=O — higher, 104 to 106 °C
- COc1cc2c(cc1F)C(=O)c1cc3ccccc3cc1C2=O — higher, > 250 °C
- CC(C)OC(=O)C(C)(C)Oc1ccc(C(=O)c2ccc(O)cc2)cc1 — higher, 124 °C

— a melting point compilation (Tetko et al.; mined from patent text by program, amines drawn as free bases though some values may be those of a salt)
